Experimental findings from US9745261B2, “Inhibitors of the MITF molecular pathway” (THE GENERAL HOSPITAL CORPORATION, priority 2013, dated 2017) are described below.

The term IC50 denotes the midpoint of a concentration-inhibition curve. Usually inhibition stands for how much of the control response was suppressed. Low values mean a weak effect, high ones a strong effect.

For one assay, the system named is TRPM-1 promoter. Description: SK-MEL-5 TRPM-1 luciferase reporter (TRPM-1 promoter activity assay). In kind it is cell-based. The following applies: Homo sapiens; SK-MEL-5 TRPM-1:luc cells, 24 hours, SteadyGlo; read-out: Target Potency IC50 (μM) TRPM1. The protocol:
The TRPM1 luciferase promoter construct was transfected into the SK-MEL-5 melanoma cell line and a stable cell line was generated. This promoter is exquisitely sensitive to MITF over-expression and suppression and contains three canonical E-box motifs within the cloned promoter fragment (17). On day 0, cells were plated at 2,000 cells per well into white, opaque 384 well plates in phenol red-free media. On day 1, cells were treated with compounds or positive control for 24 hours. On day 2, 20 uL of SteadyGlo (Promega) was added per well and luminescence signal was determined with the Perkin-Elmer EnVision plate reader. Primary HTS data were analyzed in Genedata Screener Assay Analyzer. All values were normalized against DMSO treated samples and the positive control (18 μM parthenolide, CID 6473881). For the HTS, the average of two replicates was used to rank order activity and to choose compounds for retests. For dose studies, percent (%) activity was determined for each concentration and the concentration response curves (CRCs) were generated with Genedata Screener's Condoseo.
SK-MEL-5/TRPM1Luc cells were maintained in DMEM (10% FBS, 1% Pen-Strep-Glutamine, 250 ug/mL Hygromycin). […]
Day 3 • 5. […] Read on the Perkin-Elmer EnVision plate reader with ultra-sensitive luminescence (US LUM) settings for 0.5 sec per well SK-MEL-5 Cytotoxicity Assay (2084-02)
Background: In a reporter assay the amount or activity of a reporter protein is the signal.

For a further assay, the system named is MALME-3M cells. Description: MALME-3M cell cytotoxicity assay (CellTiter-Glo). The following applies: Homo sapiens, Malme-3M, read-out: Target Potency IC50 (μM) MALME-3M; 24 hours, CellTiter-Glo. In kind it is cell-based, human. The method, then: MALME-3M cells were treated with compounds for 24 hours, and then cell viability was measured using the CellTiter-Glo Assay (Promega), a luciferase-based reagent that measures cellular ATP levels. The compounds were tested at different concentrations to determine IC50 values. Compounds that were active in the primary assay and toxic below 30 μM at 24 hours were considered for probe development. Data were normalized against DMSO in Genedata Screener's Assay Analyzer.
MALME-3M cells were maintained in IMDM (20% FBS, 1% Pen-Strep-Glutamine). Cells were fluid changed every 3 days and/or split upon reaching 100% confluency. For secondary assays, cells were thawed at 6 million cells per Falcon T175 flask. After 3 days, cells were fluid changed, after 3 more days cells were passed to a Corning Triple flask (15-18 million cells) and plated after 3 days in the triple flask.
Day 1 • 1. Plate MALME-3M cells at 3,000 per well in 30 uL media (phenol red free IMDM/10% Fetal Bovine Serum/Penicillin/Streptomycin/L-Glutamine) • 2. Use Corning white 384-well, square, opaque-bottomed plates (Corning Catalog No. 8867BC)
Day 2 • 3. Pin 100 nL compound/DMSO solution (Cybi Well) into assay plates, including the positive control. • 4. Incubate 24 hours at 37° C. in Liconic incubator.
Day 3 • 5. […] Read on the Perkin-Elmer EnVision plate reader with luminescence (LUM) settings for 0.1 sec per well. […]
(Cellular ATP, detected with luciferase, serves as a proxy for viable cell number.)

The target in another assay is T1, Dopamine D3 (Homo sapiens, UniProt P35462).
T1 construct: Eurofins Panlabs, Inc. (contract assay)
T1 sequence (P35462 whole entry): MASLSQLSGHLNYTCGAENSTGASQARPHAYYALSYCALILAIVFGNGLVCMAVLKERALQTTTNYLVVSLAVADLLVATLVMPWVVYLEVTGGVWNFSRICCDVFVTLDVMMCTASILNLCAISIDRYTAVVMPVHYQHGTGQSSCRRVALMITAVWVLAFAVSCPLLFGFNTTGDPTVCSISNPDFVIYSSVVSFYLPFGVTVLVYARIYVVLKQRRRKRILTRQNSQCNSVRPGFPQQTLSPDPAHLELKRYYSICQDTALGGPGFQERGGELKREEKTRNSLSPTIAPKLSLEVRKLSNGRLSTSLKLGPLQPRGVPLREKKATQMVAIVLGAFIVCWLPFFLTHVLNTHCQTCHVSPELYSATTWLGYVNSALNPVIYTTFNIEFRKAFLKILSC
The assay is described as follows: Radioligand binding, Dopamine D3.

A further assay has as its target T2, Endothelin ETB (Homo sapiens, UniProt P24530).
T2 construct: Eurofins Panlabs, Inc. (contract assay)
Description: Radioligand binding, Endothelin ETB.

The next assay deals with T3, Glucocorticoid (Homo sapiens, UniProt P04150).
T3 construct: Eurofins Panlabs, Inc
T3 sequence (P04150 whole entry): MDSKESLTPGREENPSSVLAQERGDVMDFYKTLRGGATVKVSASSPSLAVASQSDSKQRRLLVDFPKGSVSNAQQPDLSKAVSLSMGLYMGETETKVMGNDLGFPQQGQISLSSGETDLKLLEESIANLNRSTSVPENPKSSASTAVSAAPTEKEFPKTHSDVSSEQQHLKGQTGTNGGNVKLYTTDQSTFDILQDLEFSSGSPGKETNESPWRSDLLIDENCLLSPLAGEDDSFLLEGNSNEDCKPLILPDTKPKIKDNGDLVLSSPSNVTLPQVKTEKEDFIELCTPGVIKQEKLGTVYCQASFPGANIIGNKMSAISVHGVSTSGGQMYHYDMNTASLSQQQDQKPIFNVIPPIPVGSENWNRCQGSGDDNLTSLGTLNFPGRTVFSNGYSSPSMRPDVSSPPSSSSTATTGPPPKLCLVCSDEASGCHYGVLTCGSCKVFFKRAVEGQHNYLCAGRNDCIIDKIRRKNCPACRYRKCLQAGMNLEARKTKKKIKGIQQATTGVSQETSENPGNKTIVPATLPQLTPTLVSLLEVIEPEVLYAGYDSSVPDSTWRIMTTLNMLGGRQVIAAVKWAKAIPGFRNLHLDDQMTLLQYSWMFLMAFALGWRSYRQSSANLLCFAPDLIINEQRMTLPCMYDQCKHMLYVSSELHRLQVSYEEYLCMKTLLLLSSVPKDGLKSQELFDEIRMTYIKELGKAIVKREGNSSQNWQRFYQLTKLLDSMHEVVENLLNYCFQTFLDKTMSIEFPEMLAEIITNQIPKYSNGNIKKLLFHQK
The assay is described as follows: Radioligand binding, Glucocorticoid.

The target in another assay is T4, Muscarinic M1 (Homo sapiens, UniProt P11229).
T4 construct: Eurofins Panlabs, Inc
T4 sequence (P11229 whole entry): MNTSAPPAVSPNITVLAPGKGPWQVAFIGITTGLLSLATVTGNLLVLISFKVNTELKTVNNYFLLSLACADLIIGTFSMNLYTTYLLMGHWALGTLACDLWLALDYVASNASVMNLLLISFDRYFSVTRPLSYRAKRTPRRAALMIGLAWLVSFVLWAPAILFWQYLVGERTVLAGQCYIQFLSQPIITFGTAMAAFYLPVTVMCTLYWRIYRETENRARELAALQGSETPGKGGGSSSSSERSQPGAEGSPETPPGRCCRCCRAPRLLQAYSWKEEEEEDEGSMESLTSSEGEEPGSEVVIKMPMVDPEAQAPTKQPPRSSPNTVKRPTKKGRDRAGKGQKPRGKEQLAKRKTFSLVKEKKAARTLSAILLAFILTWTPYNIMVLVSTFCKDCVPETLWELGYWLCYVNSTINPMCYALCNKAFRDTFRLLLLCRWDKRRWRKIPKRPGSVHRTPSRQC
The assay is described as follows: Radioligand binding, Muscarinic M1.

Assay [1] concerns the target T5, Serotonin (5-Hydroxytryptamine) 5-HT1A (Homo sapiens, UniProt P08908).
T5 construct: Eurofins Panlabs
The assay is described as follows: Radioligand binding, Serotonin (5-Hydroxytryptamine) 5-HT1A.

T2 sequence (P24530 27-442): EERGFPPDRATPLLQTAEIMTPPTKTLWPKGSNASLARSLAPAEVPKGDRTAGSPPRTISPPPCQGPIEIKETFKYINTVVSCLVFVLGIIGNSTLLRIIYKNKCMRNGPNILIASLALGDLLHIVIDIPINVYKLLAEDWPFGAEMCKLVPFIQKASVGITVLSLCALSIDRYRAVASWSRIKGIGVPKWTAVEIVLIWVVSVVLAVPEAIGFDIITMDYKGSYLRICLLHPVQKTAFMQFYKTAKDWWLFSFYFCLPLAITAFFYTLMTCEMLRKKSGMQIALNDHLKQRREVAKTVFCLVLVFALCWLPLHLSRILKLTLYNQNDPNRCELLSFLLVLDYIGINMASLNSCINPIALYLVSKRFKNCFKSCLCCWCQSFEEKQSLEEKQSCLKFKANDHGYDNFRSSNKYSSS
T5 sequence (P08908 whole entry): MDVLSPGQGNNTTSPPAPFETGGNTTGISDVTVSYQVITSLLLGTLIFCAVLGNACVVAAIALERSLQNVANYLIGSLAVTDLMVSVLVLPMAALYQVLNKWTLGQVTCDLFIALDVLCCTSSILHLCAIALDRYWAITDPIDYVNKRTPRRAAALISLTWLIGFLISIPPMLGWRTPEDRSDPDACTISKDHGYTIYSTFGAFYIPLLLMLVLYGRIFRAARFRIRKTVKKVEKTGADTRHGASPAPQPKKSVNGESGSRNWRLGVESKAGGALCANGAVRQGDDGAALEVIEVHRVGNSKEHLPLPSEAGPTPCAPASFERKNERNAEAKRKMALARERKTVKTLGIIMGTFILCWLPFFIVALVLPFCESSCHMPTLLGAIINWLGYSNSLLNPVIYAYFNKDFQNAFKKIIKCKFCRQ

On to `NS(=O)(=O)c1ccc(NC2=CC(=O)c3ccccc3C2=O)cc1` [4-((1,4-dioxo-1,4-dihydronaphthalen-2-yl)amino)benzenesulfonamide], for which the values for the IC50 with TRPM-1 promoter and with MALME-3M cells were 1.2 µM and 0.88 µM, respectively.
`NS(=O)(=O)c1ccc(NC2=CC(=O)c3ccccc3C2=O)cc1` [Example 1, 4-((1,4-Dioxo-1,4-dihydronaphthalen-2-yl)amino)benzenesulfonamide]: the inhibition at 10 µM stood at 9% at Dopamine D3; 17% on Endothelin ETB; 5% on Glucocorticoid; 7% on Muscarinic M1; 21% in assay [1].
